# According to patent publication US10183019B2, “Treatment of cancer with dihydropyrazino-pyrazines” (Signal Pharmaceuticals, LLC, priority 2013, dated 2019):
# What was measured:
# [1] = test system: HF2354 PDX (GBM neurosphere line HF2354); test: Patient derived xenograft (PDX) survival study; type: in vivo, nude mouse; settings: HF2354 PDX in nude mice; 5 mg/kg oral gavage once a day, Monday through Friday; monotherapy
# Procedure: FIG. 2: Kaplan-Meier survival analysis for HF2354 PDX line (end of study). Treatment schedule for survival (Rx) and target hit (TH) are indicated.
# Immunocompromised mice (nude mouse NCRNU-M, TACONIC) were implanted with a GBM neurosphere line derived from fresh surgical specimens. The cell line was characterized as following:
# Patient derived xenograft (PDX) treatments started four weeks prior to when the first animal was expected to become symptomatic. […] Control animals were administered vehicle alone. Target hit cohorts were treated with one dose of each compound and sacrificed 2 and 24 h later (n=3/group). As necessary, fluids and supplemental food were administered to ameliorate weight loss.
# [2] = test system: patient-derived GBM cell line 217; test: Sphere-Reformation Assay; type: cell-based; settings: 7 day pre-treatment, various doses
# Procedure: (§1) Tumorsphere lines 206, 217, 254 and 282 in FIGS. 1A, 1B, 1C and 1D, respectively, were dissociated and plated as single cells at a density of 50,000 cells/ml of tumorsphere media in a total of 10 mL per T-25 cell culture flask and 5 flasks per cell line. […] 60 wells were plated from each flask of cells. Tumorspheres were allowed to grow until they achieved at least 60 microns in diameter before they were counted. The percentage of tumorsphere formation was calculated as the number of tumorspheres counted divided by the number of cells seeded times the plating efficiency of the control.
# (§2) Patient-derived GBM cell lines cultured under tumorsphere culture conditions maintain a highly heterogenous population of cells, including both sphere-initiating cells, as well as more committed progenitor cells with limited proliferative capabilities. To determine if Compound 1 specifically targets the sphere-initiating cell population, we performed a sphere re-formation assay after Compound 1 pre-treatment. […] Compound 1 may target both the sphere-initiating cells as well as the more committed progenitor cells thus the percentage of sphere-initiating cells in the culture remains constant after Compound 1 treatment.
# [3] = test system: patient-derived GBM cell line 206; test: Sphere-Reformation Assay; type: cell-based; settings: 7 day pre-treatment, various doses
# Procedure: as §1, §2
# [4] = test system: patient-derived GBM cell line 282; test: Sphere-Reformation Assay; type: cell-based; settings: 7 day pre-treatment, various doses (100 nM and 500 nM not tested)
# Procedure: as §1, §2
# [5] = test system: patient-derived GBM cell line 254; test: Sphere-Reformation Assay; type: cell-based
# Procedure: as §1, §2
# [6] = test system: patient-derived GBM cell line 350; test: Gliomasphere Formation Assay; type: cell-based; settings: cell line 350, Recurrent; 50% sphere formation vs DMSO control
# Procedure: (§3) Primary patient-derived GBM tumor samples were dissociated and plated under culture conditions (i.e. DMEM/F12 medium supplemented with B27, 20 ng/mL bFGF, 50 ng/mL EGF, penicillin/streptomycin, L-glutamine and 5 ug/mL heparin) that produce gliomaspheres. Cells were plated at a density of 50 cells per well and allowed to acclimate overnight at 37° C. The Dihydropyrazino-Pyrazine Compounds were added to the cultures on Day 2 and replenished every 7 days. EGF and FGF were also replenished every 7 days. The cells were fixed with PFA/methanol when the smallest sphere was greater than 60 microns, typically 3-5 weeks. The cells were fixed with PFA/methanol and the next day assessed for cell number, using for example, SYTO-9 fluorescent DNA dye. Plates were read 48 h later with a laser scanning imager.
# [7] = test system: patient-derived GBM cell line 250; test: Gliomasphere Formation Assay; type: cell-based; settings: cell line 250, Recurrent, MGMT Unkn/Highly Expressed; 50% sphere formation vs DMSO control
# Procedure: as §3
# [8] = test system: patient-derived GBM cell line 296; test: Gliomasphere Formation Assay; type: cell-based; settings: cell line 296, Recurrent, MGMT status −; 50% sphere formation vs DMSO control
# Procedure: as §3
# [9] = test system: patient-derived GBM cell line 217; test: Gliomasphere Formation Assay; type: cell-based; settings: cell line 217, Primary; 50% sphere formation vs DMSO control
# Procedure: as §3
# [10] = test system: patient-derived GBM cell line 309; test: Gliomasphere Formation Assay; type: cell-based; settings: cell line 309, Recurrent, MGMT ND; 50% sphere formation vs DMSO control
# Procedure: as §3
# [11] = test system: patient-derived GBM cell line 206; test: Gliomasphere Formation Assay; type: cell-based; settings: cell line 206, Recurrent, MGMT Unkn/Highly Expressed; 50% sphere formation vs DMSO control
# Procedure: as §3
# [12] = test system: patient-derived GBM cell line 245; test: Gliomasphere Formation Assay; type: cell-based; settings: cell line 245, Recurrent; 50% sphere formation vs DMSO control
# Procedure: as §3
# [13] = test system: patient-derived GBM cell line 282; test: Gliomasphere Formation Assay; type: cell-based; settings: cell line 282, Primary, MGMT ND; 50% sphere formation vs DMSO control
# Procedure: as §3
# [14] = test system: patient-derived GBM cell line 217; test: Combination effect of Compound 1 and TMZ on cell survival (fractional product); type: cell-based; settings: 168 h, Cmpd 1 100 nM alone, 7 days, read-out: % Actual inh.
# Source text: (§4) TMZ is an alkylating agent that delivers a methyl group to the purine bases of DNA (O^6-guanine; N^7-guanine and N^3-adenine). The cytotoxic lesion, O^6-methylguanine (O^6-MeG), caused by TMZ can be directly removed by methylguanine methyltransferase (MGMT) via direct repair and can also activate mechanisms of mismatch repair (MMR). Futile cycles of MMR lead to the formation of double-stranded DNA breaks and activation of the DNA-PK mediated mechanisms of double-stranded break repair.
# (§5) Tumorspheres grown under tumorsphere culture conditions were harvested, dissociated into single cells, and plated at 5,000 cells/well in 96-well plates. […] When the value of the column % actual inhibition divided by % inhibition calculated based on summation is >1=synergism, ˜1=summation, <1=antagonism.
# [15] = test system: patient-derived GBM cell line 206; test: as above; type: cell-based; settings: 168 h, 7 days, read-out: % Actual inh.
# Source text: as §4, §5
smiles,measurement,setting,value
"CCN1C(=O)CNc2ncc(-c3ccc(-c4nc[nH]n4)nc3C)nc21 [Compound 1, 1-ethyl-7-(2-methyl-6-(1H-1,2,4-triazol-3-yl)pyridin-3-yl)-3,4-dihydropyrazino[2,3-b]pyrazin-2(1H)-one]",survival (Kaplan-Meier),[1],significantly increased survival
same,number of spheres formed by cells that survived pre-treatment vs control untreated cells,[2],not significantly different
same,number of spheres formed by cells that survived pre-treatment vs control untreated cells,[3],not significantly different
same,number of spheres formed by cells that survived pre-treatment vs control untreated cells,[4],not significantly different
same,tumorsphere re-formation after pre-treatment,"[5]; 500 nM, 7 days",No tumorspheres re-formed
same,number of spheres formed by cells that survived pre-treatment vs control untreated cells,"[5]; 7 day pre-treatment, various doses",not significantly different
same,IC50,[6],39.3 nM
same,IC50,[7],39.6 nM
same,IC50,[8],544 nM
same,IC50,[9],42.1 nM
same,IC50,[10],159 nM
same,IC50,[11],142 nM
same,IC50,[12],22.6 nM
same,IC50,[13],25.8 nM
same,inhibition at 0.1 µM,[14],51%
same,inhibition at 0.05 µM,[15]; Cmpd 1 50 nM alone,10.6%
same,inhibition at 0.1 µM,[15]; Cmpd 1 100 nM alone,23.1%
same,inhibition at 0.5 µM,[15]; Cmpd 1 500 nM alone,65.8%
